Results from patent US20250332173A1, “COMPOUNDS AND METHODS FOR MODULATING NUCLEIC ACID SPLICING” (REMIX THERAPEUTICS INC., priority 2021, published 2025).
Like-named read-outs stand apart in the source and are kept apart here.

Experiments:
HTT mRNA = experiment: RT-qPCR splicing assay, HTT canonical junction (CJ) and alternative junction (AJ) mRNA; format: cell-based, human; conditions: Homo sapiens; for AC50: increase in HTT alternative junction (AJ) mRNA, read-out: HTT AJ AC50
How it was run: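 A673 cells (normalized to PPIA) or K562 cells (normalized to GAPDH or GUSB) were treated 24 h at 37 °C with an 11-point 3-fold dilution series, top 10 uM, DMSO ≤0.25%. Cell lysates went to one-step RT-qPCR measuring canonical- and alternative-junction MYB or HTT transcripts.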

[1] = test system: K562 (human chronic myelogenous leukemia) cells; experiment: Cell Titer Glo 2.0 cell viability assay; format: cell-based; conditions: Homo sapiens, K562, 72 h, K562 cells, 72 hours, Cell Titer Glo 2.0; read-out: K562 GI50
[2] = decrease in HTT canonical junction (CJ) mRNA, RT-qPCR, read-out: HTT CJ IC50
[3] = canonical junction qPCR panel, Table 5, read-out: HTT (decrease in CJ mRNA levels, IC50)
[4] = Table 5 panel, canonical junction qPCR, compound concentration having 50% response in CJ decrease, read-out: HTT IC50 (decrease in CJ mRNA levels)

Row | SMILES | IC50 (HTT mRNA; [2]) [µM] | IC50 (HTT mRNA; [3]) [µM] | GI50 [1] [µM] | IC50 (HTT mRNA; [4]) [µM] | AC50 (HTT mRNA; RT-qPCR) [µM]
1 | Cc1c(O)c(-c2ncc3c(=O)n(C4CCNC4)ccc3n2)cc2cn(C)nc12 (stereo in doubt) [Compound 1439, (6R)-2-(6-hydroxy-2,7-dimethyl-indazol-5-yl)-6-pyrrolidin-3-yl-pyrido[4,3-d]pyrimidin-5-one] | > 10 | 1 to 10 | 0.1 to 1 | – | 1 to 10
2 | Cc1c(O)c(-c2ncc3c(=O)n(C4CCNC4)ccc3n2)cc2cn(C)nc12 (stereo in doubt) [Compound 1440, (6S)-2-(6-hydroxy-2,7-dimethyl-indazol-5-yl)-6-pyrrolidin-3-yl-pyrido[4,3-d]pyrimidin-5-one] | > 10 | > 10 | 0.1 to 1 | – | > 10
3 | Cc1c(O)c(-c2ncc3c(=O)n([C@@H]4C[C@H]5C[C@@H]4CN5)ccc3n2)cc2cn(C)nc12 (stereo in doubt) [Compound 1446, 6-[(1R,4R,5R)-2-azabicyclo[2.2.1]heptan-5-yl]-2-(6-hydroxy-2,7-dimethyl-indazol-5-yl)pyrido[4,3-d]pyrimidin-5-one] | > 10 | > 10 | 0.1 to 1 | – | > 10
4 | Cn1cc2cc(-c3ccc4c(=O)n(C5CCNCC5)cnc4c3)ccc2n1 [Compound 182] | 1 to 10 | – | 0.1 to 1 | 1 to 10 | 1 to 10
5 | Cc1cn2nc(-c3ccc4c(c3F)CCN(C3CCNCC3)C4=O)cc(C)c2n1 [Compound 188] | 1 to 10 | – | 1 to 10 | 1 to 10 | 1 to 10
6 | CN1CCC(Nc2ccc3c(=O)n(-c4ccc5cn(C)nc5c4)cnc3c2)CC1 [Compound 203] | > 10 | – | > 10 | > 10 | > 10
7 | Cn1cc2ccc(-n3cnc4cc(NC5CCNCC5)ccc4c3=O)cc2n1 [Compound 204] | > 10 | – | > 10 | > 10 | > 10
8 | Cn1cc2cc(-c3cc4ccn(C5CCNCC5)c(=O)c4cn3)c(O)c(F)c2n1 [Compound 1199] | 1 to 10 | – | 1 to 10 | 1 to 10 | 1 to 10
9 | Cc1cc(-c2cc3ccn(C4CCN(C)CC4)c(=O)c3cn2)cc2cn(C)nc12 [Compound 1206, 6-(2,7-dimethyl-2H-indazol-5-yl)-2-(1-methylpiperidin-4-yl)-2,7-naphthyridin-1(2H)-one] | > 10 | – | 1 to 10 | > 10 | > 10
10 | CCN1CCC(n2ccc3cc(-c4cc(C)c5nn(C)cc5c4)ncc3c2=O)CC1 [Compound 1207, 6-(2,7-dimethyl-2H-indazol-5-yl)-2-(1-ethylpiperidin-4-yl)-2,7-naphthyridin-1(2H)-one] | 1 to 10 | – | 1 to 10 | 1 to 10 | 1 to 10
11 | Cc1cc(-c2cc3ccn(C4CCN(C5CC5)CC4)c(=O)c3cn2)cc2cn(C)nc12 [Compound 1208, 2-(1-cyclopropylpiperidin-4-yl)-6-(2,7-dimethyl-2H-indazol-5-yl)-2,7-naphthyridin-1(2H)-one] | > 10 | – | > 10 | > 10 | > 10
12 | Cc1cc(-c2cc3ccn(C4CCN(CCO)CC4)c(=O)c3cn2)cc2cn(C)nc12 [Compound 1210, 6-(2.7-dimethyl-2H-indazol-5-yl)-2-(1-(2-hydroxyethyl)piperidin-4-yl)-2,7-naphthyridin-1(2H)-one] | > 10 | – | 1 to 10 | > 10 | > 10
13 | Cc1cn2cc(-c3cc4ccn(C5CCNC5)c(=O)c4cn3)cc(C#N)c2n1 (stereo not drawn) [Compound 1214] | > 10 | – | 1 to 10 | > 10 | > 10
14 | Cc1cn2cc(-c3ncc4c(=O)n(C5CCNC5)ccc4n3)cc(F)c2n1 (stereo not drawn) [Compound 1215] | > 10 | – | 1 to 10 | > 10 | > 10
15 | COc1c(-c2cc3ccn(C4CCNCC4)c(=O)c3cn2)cc2cn(C)nc2c1F [Compound 1219] | 1 to 10 | – | 1 to 10 | 1 to 10 | 1 to 10
16 | Cc1c(O)c(-c2ncc3c(=O)n(C4CCNC4)ccc3n2)cc2cn(C)nc12 (stereo not drawn) [Compound 1222] | > 10 | – | 1 to 10 | 1 to 10 | 1 to 10
17 | Cn1cc2cc(-c3ncc4c(=O)n(C5CCNC5)ccc4n3)c(O)c(F)c2n1 (stereo not drawn) [Compound 1223] | 1 to 10 | – | 1 to 10 | 1 to 10 | 1 to 10
18 | Cc1cn2cc(-c3ncc4c(=O)n(C5CCNC5)ccc4n3)c(O)c(C)c2n1 (stereo not drawn) [Compound 1227] | > 10 | – | 1 to 10 | > 10 | > 10
19 | Cc1cn2cc(-c3ncc4c(=O)n([C@@H]5CCNC5)ccc4n3)cc(F)c2n1 [Compound 1228] | > 10 | – | 1 to 10 | > 10 | > 10
20 | Cc1cn2cc(-c3ccc4c(=O)n(C5CCNCC5)ccc4n3)nc(C)c2n1 [Compound 1238, 2-(2,8-dimethylimidazo[1,2-a]pyrazin-6-yl)-6-(piperidin-4-yl)-1,6-naphthyridin-5(6H)-one] | > 10 | > 10 | > 10 | – | > 10
21 | Cc1cn2cc(-c3ccc4c(=O)n(C5CCNCC5)ccc4n3)c(O)cc2n1 [Compound 1240] | > 10 | > 10 | 1 to 10 | – | > 10

Further lines, with some results ahead:

Row | IC50 (HTT mRNA; [2]) [µM] | IC50 (HTT mRNA; [3]) [µM] | GI50 [1] [µM] | IC50 (HTT mRNA; [4]) [µM] | SMILES | AC50 (HTT mRNA; RT-qPCR) [µM]
22 | 1 to 10 | 1 to 10 | 0.1 to 1 | – | Cc1c(O)c(-c2ncc3c(=O)n([C@@H]4CC5CC4CN5)ccc3n2)cc2cn(C)nc12 (stereo in doubt) [Compound 1443, 6-[(1R,4R,5R)-2-azabicyclo[2.2.1]heptan-5-yl]-2-(6-hydroxy-2,7-dimethyl-indazol-5-yl)pyrido[4,3-d]pyrimidin-5-one] | 1 to 10
23 | 0.1 to 1 | 0.1 to 1 | 0.1 to 1 | – | Cc1c(O)c(-c2ncc3c(=O)n(C4C[C@H]5C[C@@H]4CN5)ccc3n2)cc2cn(C)nc12 (stereo in doubt) [Compound 1444, 6-[(1R,4R,5R)-2-azabicyclo[2.2.1]heptan-5-yl]-2-(6-hydroxy-2,7-dimethyl-indazol-5-yl)pyrido[4,3-d]pyrimidin-5-one] | 0.1 to 1
24 | < 0.1 | – | 0.1 to 1 | < 0.1 | Cc1cn2nc(-c3ccc4c(=O)n(C5CCNCC5)ncc4c3)cc(C)c2n1 [Compound 186] | < 0.1
25 | 0.1 to 1 | – | < 0.1 | < 0.1 | Cc1c(O)c(-c2ncc3c(=O)n(C4CCNCC4)cc(C)c3n2)cc2cn(C)nc12 [Compound 1191] | < 0.1
26 | 0.1 to 1 | – | 0.1 to 1 | 0.1 to 1 | Cc1cn2cc(-c3cc4ccn(C5CCNCC5)c(=O)c4cn3)cc(F)c2n1 [Compound 1196] | 0.1 to 1
27 | 0.1 to 1 | – | 0.1 to 1 | 0.1 to 1 | Cc1cn2nc(-c3cc4ccn(C5CCNCC5)c(=O)c4cn3)cc(C)c2n1 [Compound 1198, 6-(2,8-dimethylimidazo[1,2-b]pyridazin-6-yl)-2-(piperidin-4-yl)-2,7-naphthyridin-1(2H)-one] | 0.1 to 1
28 | 0.1 to 1 | – | 0.1 to 1 | 0.1 to 1 | Cc1cc(-c2cc3ccn(C4CCNCC4)c(=O)c3cn2)cc2cn(C)nc12 [Compound 1204, 6-(2,7-dimethyl-2H-indazol-5-yl)-2-(piperidin-4-yl)-2,7-naphthyridin-1(2H)-one] | 0.1 to 1
29 | 0.1 to 1 | – | 0.1 to 1 | 0.1 to 1 | Cc1cn2cc(-c3cc4ccn(C5CCNCC5)c(=O)c4cn3)nc(C)c2n1 [Compound 1205, 6-(2,8-dimethylimidazo[1,2-a]pyrazin-6-yl)-2-(piperidin-4-yl)-2,7-naphthyridin-1(2H)-one] | 0.1 to 1
30 | 0.1 to 1 | – | 0.1 to 1 | 0.1 to 1 | Cc1cc(-c2cc3ccn(C4CCN(C5COC5)CC4)c(=O)c3cn2)cc2cn(C)nc12 [Compound 1209, 6-(2,7-dimethyl-2H-indazol-5-yl)-2-(1-(oxetan-3-yl)piperidin-4-yl)-2,7-naphthyridin-1(2H)-one-1] | 0.1 to 1
31 | 0.1 to 1 | – | < 0.1 | 0.1 to 1 | Cn1cc2cc(-c3ncc4c(=O)n(C5CCNCC5)ccc4n3)c(O)cc2n1 [Compound 1211] | 0.1 to 1
32 | 0.1 to 1 | – | 0.1 to 1 | 0.1 to 1 | Cn1cc2cc(-c3ncc4c(=O)n(C5CCNCC5)ccc4n3)cc(F)c2n1 [Compound 1212, 2-(7-fluoro-2-methyl-2H-indazol-5-yl)-6-(piperidin-4-yl)pyrido[4,3-d]pyrimidin-5(6H)-one] | 0.1 to 1
33 | 0.1 to 1 | – | 0.1 to 1 | 0.1 to 1 | Cc1cn2cc(-c3ncc4c(=O)n([C@H]5CCNC5)ccc4n3)cc(F)c2n1 [Compound 1220] | 0.1 to 1
34 | 0.1 to 1 | – | 0.1 to 1 | 0.1 to 1 | Cc1cn2cc(-c3ncc4c(=O)n(C5CCNC5)ccc4n3)cc(C#N)c2n1 (stereo not drawn) [Compound 1221] | 0.1 to 1
35 | 0.1 to 1 | – | 0.1 to 1 | 0.1 to 1 | Cc1cn2cc(-c3ncc4c(=O)n(C5CCNCC5)ccc4n3)c(O)c(C)c2n1 [Compound 1225] | 0.1 to 1
36 | 0.1 to 1 | 0.1 to 1 | 0.1 to 1 | – | Cn1cc2cc(-c3ccc4c(=O)n(C5CCNCC5)ccc4n3)cc(F)c2n1 [Compound 1231] | 0.1 to 1
